Reference: patent US20240400549A1, “COMPOUNDS AND THEIR USES FOR TREATING NEURODEGENERATIVE DISEASE” (Academia Sinica, priority 2021, published 2024)

Key:
[1] = target: T1, eGFP-C-TDP-43 (Homo sapiens, UniProt Q13148); experiment: SDS-PAGE dose dependency of eGFP-C-TDP-43 degradation; assay type: cell-based, mouse; conditions: Neuro-2a cells
T1 construct: expressed in transfected cells; host or cells: Neuro-2a (mouse neuroblastoma)
Method: Proteins were separated using 12% Tris-glycine SDS-PAGE. Proteins were transferred onto PVDF membrane (Millipore). Blots were blocked with 5% bovine serum albumin (BSA, Sigma) in 0.1% PBST for at least 1 hour. After blocking, blots were subjected to incubation with the primary antibodies TDP-43 (C-terminal) (1:1,000, Proteintech), TDP-43 (1:1,000, Abcam), p-TDP-43 (pS409/410) (1:1,000, Cosmo Bio), GFP (1:1,000, Abcam), All (1:1,000, Invitrogen), GAPDH (1:10,000, GeneTex), or β-actin (1:10,000, GeneTex) in 2% BSA and incubated overnight at 4° C. on a shaker. After washed with PBST, the blots were further incubated with HRP-labelled secondary antibodies (1:3,000, GeneTex) at room temperature for another 1 hour. The blots were washed and developed with electrochemiluminescence (ECL, Millipore). The signals were visualized with luminescence (iBright™ FL1000 instrument, Invitrogen).
Based on the amount of j-actin (internal control) on NC membrane, overexpression of eGFP-C-TDP-43 did induce a significant amount of C-TDP-43 species (mock control, 1.08±0.31, the black bar in FIG. 1, (B)) comparing with that in blank control of Neuro-2a cells (0.38±0.08, the white bar in FIG. 1, (B)). […]

[2] = system: YFP—C-TDP-43 transgenic C. elegans; experiment: Swimming (thrashing) body bend assay of YFP-C-TDP-43 transgenic C. elegans; assay type: in vivo; conditions: YFP—C-TDP-43 C. elegans, swimming in buffer, 30 seconds
Method: The YFP—C-TDP-43 transgenic strains of C. elegans generated in this study were IW33 [Psnb-l:C-TDP-43219-414-YFP (iwIs22)]. The strains of nematodes were maintained with standard procedure and grown at 20° C. as previously described (Zhang, T. et al. Hum. Mol. Genet. 2011, 20 (10), 1952). For all assays, the transgenic young two-day (80 hours) adults were used. For larvae synchronization, the eggs were isolated by lysing gravid adult worms with freshly prepared bleaching solution (0.5 mL 5 M NaOH with 1 mL bleach) and incubated in S buffer (recipe) for overnight. For drug treatments, compound I-1b and/or DMSO were solely or along with MG132 applied to fresh NGM plates prior to installing the synchronized C. elegans. The body bends of the corresponding treatment in a duration of 30 seconds of the various strains were documented through SMZ800N stereomicroscope equipped with a CCD camera (Nikon). A body bend was counted as the head of C. elegans travels across the mid-body in 1×PBS buffer. Then, the bending videos of C. elegans were analyzed by ImageJ with the wrMTrck plugin (Nussbaum-Krammer, C. I. et al. J. Vis. Exp. 2015, (95), 52321). […]
As YFP—C-TDP-43 readily forms cytosolic aggregates in nervous system, the YFP—C-TDP-43 aggregates both in the neuron processes and neuron bodies of the ventral cord were monitored. […]

[3] = target: T2, eGFP-C-TDP-43 oligomeric intermediates (Homo sapiens, UniProt Q13148); experiment: Size-exclusion chromatography and slot blot with oligomer-specific antibody A11; assay type: cell-based, mouse; conditions: lysate of Neuro-2a cells overexpressing eGFP-C-TDP-43, 48 h
T2 construct: expressed in transfected cells; host or cells: Neuro-2a (mouse neuroblastoma)
T2 sequence (Q13148 208-414 limits assumed): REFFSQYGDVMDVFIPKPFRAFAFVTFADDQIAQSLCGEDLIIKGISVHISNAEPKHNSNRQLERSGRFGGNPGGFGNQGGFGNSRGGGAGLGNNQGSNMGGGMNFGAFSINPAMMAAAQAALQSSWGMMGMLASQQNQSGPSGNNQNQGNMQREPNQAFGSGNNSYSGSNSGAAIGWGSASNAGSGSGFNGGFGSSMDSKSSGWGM

T1 sequence (Q13148 208-414 limits assumed): as above

## CN(C)c1ccc(-c2nc3ccc(OCCOCCOCCNc4cccc5c4C(=O)N(C4CCC(=O)NC4=O)C5=O)cc3s2)cc1 (stereo not drawn) [I-1b, 4-((2-(2-(2-((2-(4-(dimethylamino)phenyl)benzo[d]thiazol-6-yl)oxy)ethoxy)ethoxy)ethyl)amino)-2-(2,6-dioxopiperidin-3-yl)isoindoline-1,3-dione]
[1]
  degradation of eGFP-C-TDP-43, dose dependency: degraded eGFP-C-TDP-43 in a dose-dependent manner
[2]
  increase of bending frequency as compared to the DMSO control group: 28%
[3]
  A11 signal intensity in SEC fractions 9-11 (oligomeric intermediates): significantly reduced
